Assay results as given in the supplement of paper PMC10307832.

Tests used:
Test in all cases: relative viability (nuclei count vs DMSO), 5 days (fraction); higher = more cells survive
[1] = system: NCI-H1734
Outline: (§1)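 Five library-drug doses in √10 steps were combined with a fixed anchor-drug dose, or a single drug was given alone, by pin tool to lung cancer cell lines in 1536-well plates the day after seeding. Nuclei were stained and counted after 5 days. Relative viability is the nuclei count in treated wells over that in vehicle wells, taken as the median of duplicate plates.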

[2] = system: NCI-H2085
Outline: as §1

[3] = system: COR-L23
Outline: as §1

[4] = system: NCI-H1437
Outline: as §1

[5] = system: NCI-H1651
Outline: as §1

[6] = system: SK-LU-1
Outline: as §1

[7] = system: CAL-12T
Outline: as §1

[8] = system: NCI-H358
Outline: as §1

[9] = system: LOU-NH91
Outline: as §1

[10] = system: NCI-H1650
Outline: as §1

[11] = system: LU99A
Outline: as §1

[12] = system: NCI-H1975
Outline: as §1

[13] = system: NCI-H1355
Outline: as §1

[14] = system: NCI-H2342
Outline: as §1

[15] = system: BEN
Outline: as §1

[16] = system: NCI-H1793
Outline: as §1

[17] = system: NCI-H460
Outline: as §1

[18] = system: NCI-H838
Outline: as §1

[19] = system: HCC-366
Outline: as §1

[20] = system: NCI-H441
Outline: as §1

[21] = system: NCI-H2023
Outline: as §1

In the case of `Cc1sc2c(c1C)C(c1ccc(Cl)cc1)=N[C@@H](CC(=O)OC(C)(C)C)c1nnc(C)n1-2` [JQ1] + CC(=O)Nc1cccc(-n2c(=O)n(C3CC3)c(=O)c3c(Nc4ccc(I)cc4F)n(C)c(=O)c(C)c32)c1 [Trametinib] (partner 0.02 µM), the relative viability ([1]; first compound 0.04 µM) is reported as 0.685, the relative viability ([1]; first compound 0.1265 µM) is reported as 0.688 and the relative viability ([1]; first compound 0.4 µM) is reported as 0.644. For the same compound, the relative viability ([1]; first compound 1.265 µM) was 0.462, the relative viability ([1]; first compound 4 µM) was 0.491 and the relative viability ([2]; first compound 0.04 µM) was 0.376. It also gave a relative viability ([2]; first compound 0.1265 µM) of 0.551, a relative viability ([2]; first compound 0.4 µM) of 0.407 and a relative viability ([2]; first compound 1.265 µM) of 0.248. The relative viability ([2]; first compound 4 µM) was 0.239, the relative viability ([3]; first compound 0.04 µM) was 0.562 and the relative viability ([3]; first compound 0.1265 µM) was 0.497. The relative viability ([3]; first compound 0.4 µM) was 0.55, the relative viability ([3]; first compound 1.265 µM) was 0.342 and the relative viability ([3]; first compound 4 µM) was 0.29. For the same compound, the relative viability ([4]; first compound 0.04 µM) was 0.443, the relative viability ([4]; first compound 0.1265 µM) was 0.519 and the relative viability ([4]; first compound 0.4 µM) was 0.344. The relative viability ([4]; first compound 1.265 µM) was 0.35, the relative viability ([4]; first compound 4 µM) was 0.26 and the relative viability ([5]; first compound 0.04 µM) was 0.782. It also gave a relative viability ([5]; first compound 0.1265 µM) of 0.742, a relative viability ([5]; first compound 0.4 µM) of 0.603 and a relative viability ([5]; first compound 1.265 µM) of 0.496. For the same compound, the relative viability ([5]; first compound 4 µM) was 0.437, the relative viability ([6]; first compound 0.04 µM) was 0.509 and the relative viability ([6]; first compound 0.1265 µM) was 0.444. It also gave a relative viability ([6]; first compound 0.4 µM) of 0.434, a relative viability ([6]; first compound 1.265 µM) of 0.359 and a relative viability ([6]; first compound 4 µM) of 0.195. It also gave a relative viability ([7]; first compound 0.04 µM) of 0.354, a relative viability ([7]; first compound 0.1265 µM) of 0.29 and a relative viability ([7]; first compound 0.4 µM) of 0.207. The relative viability ([7]; first compound 1.265 µM) was 0.193, the relative viability ([7]; first compound 4 µM) was 0.208 and the relative viability ([8]; first compound 0.04 µM) was 0.148. The relative viability ([8]; first compound 0.1265 µM) was 0.143, the relative viability ([8]; first compound 0.4 µM) was 0.122 and the relative viability ([8]; first compound 1.265 µM) was 0.133. It also gave a relative viability ([8]; first compound 4 µM) of 0.127, a relative viability ([9]; first compound 0.04 µM) of 0.774 and a relative viability ([9]; first compound 0.1265 µM) of 0.719. It also gave a relative viability ([9]; first compound 0.4 µM) of 0.603, a relative viability ([9]; first compound 1.265 µM) of 0.479 and a relative viability ([9]; first compound 4 µM) of 0.414. The relative viability ([10]; first compound 0.04 µM) was 0.477, the relative viability ([10]; first compound 0.1265 µM) was 0.425 and the relative viability ([10]; first compound 0.4 µM) was 0.43. For the same compound, the relative viability ([10]; first compound 1.265 µM) was 0.18, the relative viability ([10]; first compound 4 µM) was 0.145 and the relative viability ([11]; first compound 0.04 µM) was 0.544. The relative viability ([11]; first compound 0.4 µM) was 0.335, the relative viability ([11]; first compound 1.265 µM) was 0.209 and the relative viability ([11]; first compound 4 µM) was 0.194. For the same compound, the relative viability ([12]; first compound 0.04 µM) was 0.342, the relative viability ([12]; first compound 0.1265 µM) was 0.27 and the relative viability ([12]; first compound 0.4 µM) was 0.244. For the same compound, the relative viability ([12]; first compound 1.265 µM) was 0.217, the relative viability ([12]; first compound 4 µM) was 0.198 and the relative viability ([13]; first compound 0.04 µM) was 0.432. The relative viability ([13]; first compound 0.1265 µM) was 0.429, the relative viability ([13]; first compound 0.4 µM) was 0.34 and the relative viability ([13]; first compound 1.265 µM) was 0.277. The relative viability ([13]; first compound 4 µM) was 0.255, the relative viability ([14]; first compound 0.04 µM) was 0.782 and the relative viability ([14]; first compound 0.1265 µM) was 0.8. The relative viability ([14]; first compound 0.4 µM) was 0.905, the relative viability ([14]; first compound 1.265 µM) was 0.803 and the relative viability ([14]; first compound 4 µM) was 0.672. It also gave a relative viability ([15]; first compound 0.04 µM) of 1.05, a relative viability ([15]; first compound 0.1265 µM) of 0.829 and a relative viability ([15]; first compound 0.4 µM) of 0.557. For the same compound, the relative viability ([15]; first compound 1.265 µM) was 0.481, the relative viability ([15]; first compound 4 µM) was 0.41 and the relative viability ([16]; first compound 0.04 µM) was 0.483. The relative viability ([16]; first compound 0.1265 µM) was 0.429, the relative viability ([16]; first compound 0.4 µM) was 0.595 and the relative viability ([16]; first compound 1.265 µM) was 0.481. It also gave a relative viability ([16]; first compound 4 µM) of 0.5, a relative viability ([17]; first compound 0.04 µM) of 0.129 and a relative viability ([17]; first compound 0.1265 µM) of 0.0734. It also gave a relative viability ([17]; first compound 0.4 µM) of 0.0575, a relative viability ([17]; first compound 1.265 µM) of 0.0314 and a relative viability ([17]; first compound 4 µM) of 0.0297. The relative viability ([18]; first compound 0.04 µM) was 0.521, the relative viability ([18]; first compound 0.1265 µM) was 0.267 and the relative viability ([18]; first compound 0.4 µM) was 0.375. It also gave a relative viability ([18]; first compound 1.265 µM) of 0.293, a relative viability ([18]; first compound 4 µM) of 0.202 and a relative viability ([19]; first compound 0.04 µM) of 0.407. It also gave a relative viability ([19]; first compound 0.4 µM) of 0.372, a relative viability ([19]; first compound 1.265 µM) of 0.235 and a relative viability ([19]; first compound 4 µM) of 0.237. For the same compound, the relative viability ([20]; first compound 0.04 µM) was 0.476, the relative viability ([20]; first compound 0.1265 µM) was 0.377 and the relative viability ([20]; first compound 0.4 µM) was 0.31. For the same compound, the relative viability ([20]; first compound 1.265 µM) was 0.175, the relative viability ([20]; first compound 4 µM) was 0.169 and the relative viability ([21]; first compound 0.04 µM) was 0.472. It also gave a relative viability ([21]; first compound 0.1265 µM) of 0.394, a relative viability ([21]; first compound 0.4 µM) of 0.248 and a relative viability ([21]; first compound 1.265 µM) of 0.162. The relative viability ([21]; first compound 4 µM) was 0.137.
